Patent US5500443A, “New benzodioxane compounds” (Adir et Compagnie, priority 1994, dated 1996)
Structures can show the parent of a compound that is named as a salt. Where two headings read alike, the source gives them in different places.

What was measured:
[1] = Induction of catalepsy in rats; design: species or system male Wistar rats; conditions: rat, in vivo, sc
Excerpt: In order to determine the potential of the compounds of the invention to generate a syndrome of extrapyramidal type, the capacity to induce a catalepsy in rats was examined. This phenomenon is due to an antagonism of the nigrostriatal dopaminergic transmission.
Male Wistar rats (220-240 g) were placed in individual cages and food was witheld the night before the test. The test used to evaluate the cataleptogenic properties of a product consists in placing each of the animal's hind feet on the forefoot located on the same side and in measuring the time in seconds for which the animal kept this "crossed feet" position, up to 30 seconds, as described by P. C. […] Each animal underwent three tests, at intervals of one minute; the average value of the three tests then represents the catalepsy time of the animal, which is used for the statistical analysis. The product to be tested was administered to the animal subcutaneously, 30 minutes before the test.
The effective cataleptogenic dose ED5.sbsb.0 is that which induces catalepsy for an average duration of 15 seconds, that is to say for 50% of the maximum duration of the test (30 seconds).

[2] = tested on: mesolimbic dopaminergic pathways; test: Test of the motor activity induced by amphetamine; type: in vivo, male Wistar rats; conditions: for ED50: Rattus norvegicus, sc, read-out: Locomotion (Amphetamine) DI50
Description: motor activity inhibition induced by amphetamine (which increases the release of catecholamines) according to the procedure described by A. A. Mengens, cited above.
(§1) An activity in these tests appears to reflect blocking of the mesolimbic dopaminergic pathways, which are believed to be hyperactive in schizophrenics, as described by P. C.
Male Wistar rats (200-220 g) were placed in transparent polycarbonate individual cages the night before the test. The locomotor activity was recorded using photoelectric cells (Systeme Lablinc, Coulbourn) connected via an interface to a microcomputer. There are two transverse banks of photoelectric cells per cage. The test takes place under artificial light, starting from 1.00 p.m., during daylight hours. The product or solvent was administered to the animal subcutaneously, 30 minutes before the start of the test.

5-HT1A = target: T1, 5-HT1A (Rattus norvegicus, UniProt P19327); test: biochemical; conditions: binding; read-out: Receptor Profile (pKi) 5-HT1A (converted)
T1 sequence (P19327 1-422): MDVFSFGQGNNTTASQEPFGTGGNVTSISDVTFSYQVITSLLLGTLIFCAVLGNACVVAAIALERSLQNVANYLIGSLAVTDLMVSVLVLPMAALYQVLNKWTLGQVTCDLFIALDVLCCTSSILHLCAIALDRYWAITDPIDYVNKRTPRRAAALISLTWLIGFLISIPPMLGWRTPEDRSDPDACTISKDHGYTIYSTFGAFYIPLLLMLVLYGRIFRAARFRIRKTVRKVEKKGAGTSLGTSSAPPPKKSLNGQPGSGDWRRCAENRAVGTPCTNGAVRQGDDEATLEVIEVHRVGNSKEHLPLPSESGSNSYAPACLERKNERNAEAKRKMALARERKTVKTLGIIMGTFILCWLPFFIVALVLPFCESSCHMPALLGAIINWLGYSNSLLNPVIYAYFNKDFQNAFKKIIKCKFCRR

D1 = target: T2, D1 (Rattus norvegicus, UniProt P18901); test: Receptor profile, binding studies (D1); conditions: read-out: Receptor Profile (pKi) D1 (converted)
T2 construct: from tissue
T2 sequence (P18901 whole entry): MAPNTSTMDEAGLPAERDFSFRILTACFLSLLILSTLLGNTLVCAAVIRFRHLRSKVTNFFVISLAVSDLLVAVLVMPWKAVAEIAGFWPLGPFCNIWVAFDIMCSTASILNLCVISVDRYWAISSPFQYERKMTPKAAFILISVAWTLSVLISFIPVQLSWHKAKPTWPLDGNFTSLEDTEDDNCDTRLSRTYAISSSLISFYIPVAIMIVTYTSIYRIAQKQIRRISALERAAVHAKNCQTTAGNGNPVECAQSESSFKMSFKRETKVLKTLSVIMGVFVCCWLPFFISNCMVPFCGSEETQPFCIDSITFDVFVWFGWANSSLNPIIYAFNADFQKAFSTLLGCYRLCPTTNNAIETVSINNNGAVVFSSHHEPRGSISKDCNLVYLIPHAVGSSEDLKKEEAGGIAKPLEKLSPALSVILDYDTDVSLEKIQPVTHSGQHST

5-HT2A = target: T3, 5-HT2A (Rattus norvegicus, UniProt P14842); test: Receptor profile, binding studies (5-HT2A); conditions: Receptor Profile (pKi) 5-HT2A
T3 construct: from tissue
T3 sequence (P14842 whole entry): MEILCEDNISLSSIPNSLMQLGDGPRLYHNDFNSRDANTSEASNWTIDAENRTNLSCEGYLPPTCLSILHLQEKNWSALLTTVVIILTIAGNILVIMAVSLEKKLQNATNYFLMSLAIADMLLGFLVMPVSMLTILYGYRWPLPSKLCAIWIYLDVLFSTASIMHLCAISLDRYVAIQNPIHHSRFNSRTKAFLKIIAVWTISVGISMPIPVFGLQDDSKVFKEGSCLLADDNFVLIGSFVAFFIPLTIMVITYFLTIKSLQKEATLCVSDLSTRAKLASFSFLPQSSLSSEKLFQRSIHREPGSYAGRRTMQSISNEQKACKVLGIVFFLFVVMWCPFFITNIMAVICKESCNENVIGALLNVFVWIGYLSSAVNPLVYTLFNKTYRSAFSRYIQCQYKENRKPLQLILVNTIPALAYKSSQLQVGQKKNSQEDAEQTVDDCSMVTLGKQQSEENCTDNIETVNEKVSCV

D2 = D2 (Rattus norvegicus, UniProt P61169); test: biochemical; conditions: binding; read-out: Receptor Profile (pKi) D2 (converted)
Sequence of D2 (P61169 whole entry): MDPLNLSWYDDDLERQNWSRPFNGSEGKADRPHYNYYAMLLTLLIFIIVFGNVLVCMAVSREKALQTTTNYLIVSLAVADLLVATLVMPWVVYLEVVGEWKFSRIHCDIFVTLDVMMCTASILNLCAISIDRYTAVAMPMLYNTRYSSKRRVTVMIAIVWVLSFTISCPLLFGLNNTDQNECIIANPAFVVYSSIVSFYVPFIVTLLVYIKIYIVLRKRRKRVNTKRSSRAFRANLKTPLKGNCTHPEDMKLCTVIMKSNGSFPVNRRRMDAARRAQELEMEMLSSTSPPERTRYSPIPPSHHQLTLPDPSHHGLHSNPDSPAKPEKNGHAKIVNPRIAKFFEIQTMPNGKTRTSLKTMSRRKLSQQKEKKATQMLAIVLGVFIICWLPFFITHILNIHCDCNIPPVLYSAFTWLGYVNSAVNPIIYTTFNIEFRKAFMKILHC

5-HT2C = target: T4, 5-HT2C (Sus scrofa, UniProt K7GSR7); test: Receptor profile, binding studies (5-HT2C); conditions: Receptor Profile (pKi) 5-HT2C
T4 construct: from tissue
T4 sequence (K7GSR7 1-457): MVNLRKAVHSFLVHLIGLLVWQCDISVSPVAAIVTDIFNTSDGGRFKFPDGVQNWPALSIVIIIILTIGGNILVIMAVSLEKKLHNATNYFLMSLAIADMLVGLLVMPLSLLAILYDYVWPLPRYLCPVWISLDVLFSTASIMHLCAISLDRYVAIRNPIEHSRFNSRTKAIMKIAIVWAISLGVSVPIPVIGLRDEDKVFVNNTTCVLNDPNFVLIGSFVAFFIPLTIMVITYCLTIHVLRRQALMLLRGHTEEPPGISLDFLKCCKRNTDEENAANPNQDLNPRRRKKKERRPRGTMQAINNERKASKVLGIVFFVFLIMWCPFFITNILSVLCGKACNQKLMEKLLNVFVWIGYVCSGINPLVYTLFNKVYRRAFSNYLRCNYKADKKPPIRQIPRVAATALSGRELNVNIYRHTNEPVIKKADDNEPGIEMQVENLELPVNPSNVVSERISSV

α1 = test: Receptor profile, binding studies (α1)
[3] = tested on: mesolimbic dopaminergic pathways; test: Verticalization test using apomorphine in mice; type: in vivo, male CF (Charles River) mice; conditions: for ED50: Mus musculus, sc, read-out: Verticalization (Apomorphine) DI50
Description: as §1
The experiment was performed on male CF (Charles River) mice of average weight 25 g. thirty minutes before the start of the test, each mouse was placed in a cylindrical cage (O12 cm 14 cm), with vertical metal bars and a smooth plastic lid, after having received a subcutaneous injection of solvent or of product. […] At T10 (10 minutes) and at T20 (20 minutes), a score was attributed to each animal after observation for approximately one minute:
score 0 (4 feet on the floor);
score 1 (animal raised on hind legs, forefeet on the vertical bars);
score 2 (animal gripping on to the bars with all 4 feet).
The total score of the 2 measurements then represents the verticalization value of the animal, which is used for the statistical analysis.

schizophrenia = conditions: cited from earlier work
[4] = tested on: adrenergic (α1) receptors; conditions: cited from earlier work
5-HT1A receptors = conditions: unlike haloperidol; cited from earlier work
[5] = rats, s.c. 30 min before, D-amphetamine 2.5 mg/kg i.p., 1 hour, Inhibitory Dose50, 95% confidence limits
[6] = mice, s.c. 30 min before, apomorphine 0.75 mg/kg s.c., Inhibitory Dose50, 95% confidence limits

SMILES	ED50 at 0.5 h [1] [mg/kg]	ED50 [2, 5] [mg/kg]	Ki (5-HT1A) [nM]	Ki (D1) [nM]	Ki (5-HT2A) [nM]	Ki (D2) [nM]	Ki (5-HT2C) [nM]	ED50 [3, 6] [mg/kg]	other results
O=C(CC1CCN(CCOc2cccc3c2OCCO3)C1)c1ccc(F)cc1 (single isomer, unassigned) [Example 5, 5-{2-[3-(4-Fluorobenzoylmethyl)pyrrolidin-1-yl]ethoxy}-1,4-benzodioxane hydrochloride, (+) isomer]	> 40	2.8	4.79	275	3.31	46.8	9.33	0.26	Receptor Profile (pKi) α1 (α1; listed as ex. 5): 8.19
O=C(CC1CCN(CCOc2cccc3c2OCCO3)C1)c1ccc(F)cc1 (single isomer, unassigned) [Example 6, 5-{2-[3-(4-Fluorobenzoylmethyl)pyrrolidin-1-yl]ethoxy}-1,4-benzodioxane hydrochloride, (-) isomer]	–	–	3.63	204	2.4	53.7	6.61	–	Locomotion (Amphetamine) DI50 ([2]; rats, s.c. 30 min before, D-amphetamine 2.5 mg/kg i.p., 1 hour, Inhibitory Dose50, 95% confidence limits, listed as Ex. 6): 1.94 mg/kg; Receptor Profile (pKi) α1 (α1; listed as ex. 6): 8.93; Verticalization (Apomorphine) DI50 ([3]; mice, s.c. 30 min before, apomorphine 0.75 mg/kg s.c., Inhibitory Dose50, 95% confidence limits, listed as Ex. 6): 0.25 mg/kg
CN1CCN(C2=Nc3cc(Cl)ccc3Nc3ccccc32)CC1 [Clozapine, clozapine]	–	12.8	–	–	–	–	–	2.22	ED50 at 0.5 h ([1]; rats, s.c. 30 min before, dose inducing catalepsy for an average of 15 seconds (50% of maximum), read-out: Induction of the catalepsy DE50): > 40 mg/kg; toxicity in the general treatment of schizophrenic states (schizophrenia; human, in vivo): on account of its toxicity, clozapine cannot be envisaged in the general treatment of schizophrenic states; extrapyramidal syndrome (schizophrenia; schizophrenia): appears not to bring about an extrapyramidal syndrom; affinity for the adrenergic (α1) receptors [4]: relatively high affinity; affinity for the 5-HT1A receptors (5-HT1A receptors): a certain affinity for the 5-HT1A receptors
O=C(CC1CCN(CCOc2cccc3c2OCCO3)C1)c1ccc(F)cc1 (stereo not shown) [Example 2, 5-{2-[3-(4-Fluorobenzoylmethyl)pyrrolidin-1-yl}-1,4-benzodioxane hydrochloride]	> 40	2.17	4.9	251	3.98	43.7	7.94	0.28	Receptor Profile (pKi) α1 (α1): 8.61
Cl.Fc1ccc2c(CC3CCN(CCOc4cccc5c4OCCO5)C3)n[nH]c2c1 (stereo not shown) [Example 7, 5-{2-[3-[(6-Fluoro-1H-indazol-3-yl)methyl]pyrrolidin-1-yl]ethoxy}-1,4-benzodioxane hydrochloride]	–	–	1.7	–	21.9	53.7	93.3	0.41	–
Cl.Fc1ccc2c(CC3CCN(CCOc4cccc5c4OCCO5)C3)noc2c1 (stereo not shown) [Example 8, 5-{2-[3-[(6-Fluoro-1,2-benzisoxazol-3-yl)methyl]pyrrolidin-1-yl]ethoxy}-1,4-benzodioxane hydrochloride]	–	–	3.89	–	13.2	257	95.5	~0.63	–
O=C(CCCN1CCC(O)(c2ccc(Cl)cc2)CC1)c1ccc(F)cc1 [Haloperidol, haloperidol, reference compound]	0.156	–	–	–	–	–	–	–	ED50 [2]: 0.043 mg/kg; effectiveness for the productive symptoms (such as fabulation and hallucinations) (schizophrenia; schizophrenia): quite good care for the productive symptoms; effectiveness with regard to deficiency symptoms (such as social withdrawal) (schizophrenia; schizophrenia): very poor; extrapyramidal syndrome (schizophrenia; schizophrenia): induce an extrapyramidal syndrome of Parkinson type; ED50 [3]: 0.013 mg/kg
